# Test results as given in the SangsterLogP compilation.
row,Compound,logP
1,Cc1cccc2c1Oc1ncccc1C2NC(=O)CN(C)C (stereo unspecified),2.19
2,CCN(CC)CC(=O)NC1c2ccccc2Sc2c(C)cccc21 (stereo unspecified),4.24
3,O=NN(CCCl)C(=O)NCCSC1c2ccccc2Oc2ccccc21,5
4,O=NN(CCCl)C(=O)NCC1c2ccccc2Oc2ccccc21,4.13
5,Cc1ccc2c(c1)C(NC(=O)N(CCCl)N=O)c1ccccc1S2 (stereo unspecified),5.01
6,Cc1cccc2c1Oc1ccccc1C2NC(=O)CCN(C)C (stereo unspecified),2.61
7,CCN(CC)CC(=O)NC1c2ccccc2Oc2ccccc21,3.49
8,O=NN(CCCl)C(=O)NC1c2ccccc2Sc2ccccc21,4.59

# More lines, now with the values ahead:
row,logP,Compound
1,4.17,O=NN(CCCl)C(=O)NC1c2ccccc2Oc2ccccc21
2,4.77,Cc1cccc2c1Oc1ccccc1C2NC(=O)N(CCCl)N=O (stereo unspecified)
3,4.48,COc1ccc2c(c1)C(NC(=O)N(CCCl)N=O)c1ccccc1O2 (stereo unspecified)
4,4.65,Cc1ccc2c(c1)C(NC(=O)N(CCCl)N=O)c1ccccc1O2 (stereo unspecified)
5,5.03,Cc1cccc2c1Sc1ccccc1C2NC(=O)N(CCCl)N=O (stereo unspecified)
6,3.68,COc1cccc2c1Oc1ccccc1C2NC(=O)N(CCCl)N=O (stereo unspecified)
7,4.86,CCOc1ccc2c(c1)C(NC(=O)N(CCCl)N=O)c1ccccc1O2 (stereo unspecified)
8,5.19,Cc1cc(C)c2c(c1)C(NC(=O)N(CCCl)N=O)c1ccccc1O2 (stereo unspecified)
